Patent publication US7396837B2, “Antitumoral analogs of lamellarins” (Pharma Mar, S.A.U., priority 2002, dated 2008)

Legend:
Assay type in all cases: cell-based
PANC-1 = assay: SRB colorimetric cell growth inhibition assay, PANC-1
In short: (§1)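 Growth inhibition (GI), cytostatic total growth inhibition (TGI) and cytotoxic cell-kill (LC) parameters were calculated from SRB-stained cultures held under constant compound exposure, triplicates averaged.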

HeLa = assay: SRB colorimetric cell growth inhibition assay, HeLa; details: Homo sapiens, HeLa
In short: as §1

DU-145 = assay: SRB colorimetric cell growth inhibition assay, DU-145
In short: as §1

K-562 = assay: SRB colorimetric cell growth inhibition assay, K-562
In short: as §1

IGROV-ET = assay: SRB colorimetric cell growth inhibition assay, IGROV-ET (ET-743 resistant)
In short: as §1

HT-29 = assay: SRB colorimetric cell growth inhibition assay, HT-29
In short: as §1

HeLa-APL = assay: SRB colorimetric cell growth inhibition assay, HeLa-APL (aplidine resistant); details: Homo sapiens
In short: as §1

LNCaP = assay: SRB colorimetric cell growth inhibition assay, LNCaP
In short: as §1

LoVo-Dox = assay: SRB colorimetric cell growth inhibition assay, LoVo-Dox (MDR)
In short: as §1

LoVo = assay: SRB colorimetric cell growth inhibition assay, LoVo
In short: as §1

A-549 = assay: SRB colorimetric cell growth inhibition assay, A-549
In short: as §1

IGROV = assay: SRB colorimetric cell growth inhibition assay, IGROV
In short: as §1

SK-BR-3 = assay: SRB colorimetric cell growth inhibition assay, SK-BR-3
In short: as §1

SK-MEL-28 = assay: SRB colorimetric cell growth inhibition assay, SK-MEL-28
In short: as §1

`COc1cc(-c2c3c4cc(OC)c(OC(=O)[C@@H](N)C(C)C)cc4oc(=O)c3n3ccc4c(OC(=O)[C@@H](N)C(C)C)c(OC)c(OC)cc4c23)ccc1OC(=O)[C@@H](N)C(C)C` [Compound 190] was tested, and the IC (TGI) (PANC-1; Homo sapiens, PANC-1, PANC-1, total growth inhibition (cytostatic effect), read-out: TGI PANC-1) was 3500 nM, the CC50 (PANC-1; Homo sapiens, PANC-1, read-out: LC50 PANC-1, PANC-1, cell killing (cytotoxic effect)) was 10700 nM and the GI50 (PANC-1; PANC-1, GI=growth inhibition, read-out: GI50 PANC-1) was 376 nM. The CC50 (HeLa; read-out: LC50 HELA, HELA, cell killing (cytotoxic effect)) was 3930 nM, the IC (TGI) (HeLa; read-out: TGI HELA) was 1310 nM and the GI50 (HeLa; GI=growth inhibition, read-out: GI50 HELA) was 83.3 nM. The GI50 (DU-145; DU-145, GI=growth inhibition, read-out: GI50 DU-145) was 57.5 nM, the “TGI DU-145” value (DU-145; DU-145, total growth inhibition (cytostatic effect)) was 2.63E−07 Molar and the CC50 (DU-145; human) was 10700 nM. It also gave an IC (TGI) (K-562; Homo sapiens, K562, K-562, total growth inhibition (cytostatic effect), read-out: TGI K-562) of 7120 nM, a CC50 (K-562; Homo sapiens, K562, read-out: LC50 K-562, K-562, cell killing (cytotoxic effect)) of 10700 nM and a GI50 (K-562; K-562, GI=growth inhibition, read-out: GI50 K-562) of 71.8 nM. The GI50 (IGROV-ET; IGROV-ET, GI=growth inhibition, read-out: GI50 IGROV-ET) was 102 nM, the “TGI IGROV-ET” value (IGROV-ET; IGROV-ET, total growth inhibition (cytostatic effect)) was 1.20E−06 Molar and the CC50 (IGROV-ET; human) was 6420 nM. It also gave a GI50 (HT-29; HT-29, GI=growth inhibition, read-out: GI50 HT-29) of 2990 nM, a CC50 (HT-29; Homo sapiens, HT-29, read-out: LC50 HT-29, HT-29, cell killing (cytotoxic effect)) of 10700 nM and an IC (TGI) (HT-29; Homo sapiens, HT-29, total growth inhibition (cytostatic effect), read-out: TGI HT-29) of 10700 nM. For the same compound, the GI50 (HeLa-APL; read-out: GI50 HELA-APL) was 89.9 nM, the CC50 (HeLa-APL; read-out: LC50 HELA-APL, HELA-APL, cell killing (cytotoxic effect)) was 5200 nM and the IC (TGI) (HeLa-APL; read-out: TGI HELA-APL) was 1720 nM. For the same compound, the GI50 (LNCaP; LN-caP, GI=growth inhibition, read-out: GI50 LN-caP) was 48.6 nM, the “TGI LN-caP” value (LNCaP; LN-caP, total growth inhibition (cytostatic effect)) was 2.97E−07 Molar and the CC50 (LNCaP; human) was 1970 nM. The IC (TGI) (LoVo-Dox; Homo sapiens, LOVO-DOX, total growth inhibition (cytostatic effect), read-out: TGI LOVO-DOX) was 1370 nM, the CC50 (LoVo-Dox; Homo sapiens, read-out: LC50 LOVO-DOX, LOVO-DOX, cell killing (cytotoxic effect)) was 7680 nM and the GI50 (LoVo-Dox; LOVO-DOX, GI=growth inhibition, read-out: GI50 LOVO-DOX) was 310 nM. The CC50 (LoVo; Homo sapiens, LoVo, read-out: LC50 LOVO, LOVO, cell killing (cytotoxic effect)) was 5460 nM, the IC (TGI) (LoVo; Homo sapiens, LoVo, total growth inhibition (cytostatic effect), read-out: TGI LOVO) was 1200 nM and the GI50 (LoVo; LOVO, GI=growth inhibition, read-out: GI50 LOVO) was 285 nM. The GI50 (A-549; A-549, GI=growth inhibition, read-out: GI50 A-549) was 167 nM, the IC (TGI) (A-549; Homo sapiens, A549, A-549, total growth inhibition (cytostatic effect), read-out: TGI A-549) was 1660 nM and the CC50 (A-549; Homo sapiens, A549, read-out: LC50 A-549, A-549, cell killing (cytotoxic effect)) was 10700 nM. For the same compound, the GI50 (IGROV; IGROV, GI=growth inhibition, read-out: GI50 IGROV) was 134 nM, the “TGI IGROV” value (IGROV; IGROV, total growth inhibition (cytostatic effect)) was 8.95E−07 Molar and the CC50 (IGROV; human) was 8320 nM. For the same compound, the GI50 (SK-BR-3; SK-BR-3, GI=growth inhibition, read-out: GI50 SK-BR-3) was 92.2 nM, the “TGI SK-BR-3” value (SK-BR-3; SK-BR-3, total growth inhibition (cytostatic effect)) was 3.83E−07 Molar and the CC50 (SK-BR-3; human) was 2630 nM. For the same compound, the IC (TGI) (SK-MEL-28; Homo sapiens, SK-MEL-28, MEL-28, total growth inhibition (cytostatic effect), read-out: TGI MEL-28) was 10700 nM, the GI50 (SK-MEL-28; MEL-28, GI=growth inhibition, read-out: GI50 MEL-28) was 9150 nM and the CC50 (SK-MEL-28; human) was 10700 nM.
